From US20240325274A1, “SUPRAMOLECULAR AMINO ACID OR SALT THEREOF, AND PREPARATION METHOD THEREFOR AND APPLICATION THEREOF” (SUZHOU OULIT BIOPHARM CO., LTD., priority 2021, published 2024)

What was measured:
[1] = Detergency evaluation: color cosmetics on arms of 5 subjects; design: key: 5 denotes the best; 3 denotes moderate; 1 denotes the worst; settings: 1 g of 4% aqueous solution with 0.54% sodium hydroxide; graded by 5 subjects
Excerpt: (§1) Three sets of color cosmetics (lipstick+eyeliner) were applied to the arms of 5 subjects with similar areas and thicknesses. The cosmetics were washed with the aqueous solutions in Table 6 (1 g of each) and then rinsed with tap water (the detergency was graded by the 5 subjects comprehensively).

[2] = pH, appearance and smell of neutralized aqueous solutions; type: physicochemical; settings: 4% in water with 0.54% sodium hydroxide (Table 6)
Protocol: as §1
The preparation procedures are as follows: Two 500-g beakers were weighed on an electronic balance, and the weights of the beakers were recorded; a proper amount of deionized water was weighed and added to the beakers according to the formula, and the beakers were heated to 75-80° C. in a water bath. The temperature of the water in the beaker was measured by a thermometer. […] At the start of the stirring, a proper amount of arginine was added to beaker (1) and a proper amount of 10% aqueous sodium hydroxide solution was added to beaker (2). The mixtures were stirred for 1 min. The temperature of the beakers (1) and (2) was reduced to 25° C. by running tap water. The evaporated water in the two beakers in the preparation process was compensated by cooled deionized water to 100% on an electronic balance. The pH of the products in the beaker (1) and (2) was measured, the appearance was observed, and the smell was confirmed.

[3] = Protocol: Two 100-g aliquots of bok choy pre-sprayed with pesticides methamidophos and acephate were taken. One was directly soaked in 1 L of clean water and detected for the pesticide residues, denoted as “before washing”. […] The procedures are as follows:
A 10% aqueous sodium hydroxide solution was added to neutralize the mixture to pH 6-7. The volume of the aqueous solution was brought to 100 mL. The second 100-g aliquot of bok choy pre-sprayed with pesticides methamidophos and acephate was shredded, soaked in 5 mL of the stock solution for 2 min, washed with 500 mL of clean water, and detected for the pesticide residues.

[4] = cloths soaked in 5 mL stock solution for 2 min, washed with water, aired
Protocol: A 10% aqueous sodium hydroxide solution was added to neutralize the mixture to pH 6-7. The volume of the aqueous solution was brought to 100 mL. Cotton cloths of 10 square centimeters with peculiar smell (smell, engine oil smell, odor, etc.) were soaked in 5 mL of stock solution for 2 min, taken out, washed with water, and dried by airing.

C. albicans (ATCC 10231) = settings: 10 g in 100 mL neutralized with NaOH to pH 6-7
Protocol: (§2) A 10% aqueous sodium hydroxide solution was added to neutralize the mixture to pH 6-7. The volume of the aqueous solution was brought to 100 mL. Fruits pre-inoculated with common microorganisms such as Staphylococcus aureus, Escherichia coli, Pseudomonas aeruginosa, Candida albicans, and the like were soaked in 5 mL of the stock solution (the solution neutralized by sodium hydroxide) for a certain period of time, and washed with clean water. The microorganism residues on the fruits were determined.

S. aureus (ATCC 6538) = settings: 10 g in 100 mL neutralized with NaOH to pH 6-7
Protocol: as §2

E. coli (8099) = test system: E. coli (8099)
Protocol: as §2

[5] = Qualitative household application test; settings: 12% aqueous solution of sodium salt
Excerpt: For the surface of the electric rice cookers, especially the sticky bottoms, the greasy stains on the surface were wiped several times by using rags or paper towels soaked in the solutions and then wiped by using a clean cloth.

Compound	Detergency [1]	Appearance [2]	pH value [2]	Acephate, Percentage removal, % ([3]; 2 min of treatment) [%]	Methamidophos, Percentage removal, % ([3]; 2 min of treatment) [%]	Methamidophos residue, After cleaning ([3]; bok choy soaked in 5 mL stock solution for 2 min, washed with 500 mL clean water, before washing 16.42 mg/kg) [mg/kg]	Acephate residue, After cleaning ([3]; bok choy soaked in 5 mL stock solution for 2 min, washed with 500 mL clean water, before washing 37.57 mg/kg) [mg/kg]	Deodorization effect on cotton cloths [4]	Inhibition of C. albicans (ATCC 10231), % (after 5 minutes) (C. albicans (ATCC 10231)) [%]	Inhibition of S. aureus (ATCC 6538), % (after 2 minutes) (S. aureus (ATCC 6538); after 2 minutes) [%]	Inhibition of S. aureus (ATCC 6538), % (after 5 minutes) (S. aureus (ATCC 6538); after 5 minutes) [%]	Inhibition of E. coli (8099), % (after 2 minutes) (E. coli (8099); after 2 minutes, 10 g in 100 mL neutralized with NaOH to pH 6-7, fruits soaked in 5 mL stock solution) [%]	Inhibition of E. coli (8099), % (after 5 minutes) (E. coli (8099); after 5 minutes, 10 g in 100 mL neutralized with NaOH to pH 6-7) [%]	Detergency on surfaces of cooking benches and kitchen hoods [5]
CCCCCCCCCCCC(=O)N[C@@H](C)C(=O)O [Comparative Example 1, N-lauroyl-L-alanine]	3	Transparent	8.07	–	–	–	–	–	–	–	–	–	–	–
CCCCCCCCCCCC(=O)N[C@@H](C)C(=O)O [Comparative Example 2, N-lauroyl-L-alanine]	1	Transparent	6.56	–	–	–	–	–	–	–	–	–	–	–
N-lauroyl-L-alanine supramolecule [Example 1]	5	–	–	86.37	76.19	3.91	5.12	the smells on the cotton cloths were completely eliminated	100	100	100	98.5	100	excellent detergency
